Assay results taken from patent US20250313535A1, “ALPHA 4 BETA 7 INTEGRIN MODULATORS AND USES THEREOF” (DICE MOLECULES SV, INC., priority 2022, published 2025).

What was measured:
Assay type in all cases: cell-based
α4β7 integrin [1] = biological target: T1, α4β7 integrin (Homo sapiens (Human), UniProt P13612+P26010); assay: Integrin Adhesion Assay: Protocol 1 (MAdCAM-coated plate, RPMI-8866 cells, CellTiter GLO readout)
Experimental: α4β7 and α4β1 inhibition was evaluated in vitro using at least one of the following procedures:
Integrin Adhesion Assay: Protocol 1
MAdCAM (R&D Systems, 0.1 ug) was diluted in 50 μL PBS, added to each well of an opaque ELISA plate (Thermo), and incubated overnight at 4° C. Coated plates were washed once with PBS and then blocked with 200 μL of assay buffer (10 mM HEPES, 150 mM NaCl, 1 mM MnCl2, 0.1 mM CaCl2), 1% BSA) for 1 hour at 37° C. and 5% CO2. After incubation, buffer was aspirated from the plates and 50 μL of fresh assay buffer is added. Compounds were added by a compouns dispenser (Tecan) and DMSO concentration was normalized to 1% across each plate. 50 μL of RPMI-8866 cells (2×10^6 per mL) were added to each well and the plates were incubated for 1 hour at 37° C. and 5% CO2. After incubation, plates were allowed to cool to RT for 10 minutes before being washed four times in assay buffer by an automated plate washer (BioTek). After washing, 100 μL of a 1:1 mixture of assay buffer and CellTiter GLO 2.0 reagent (Promega) were added to each well. Plates were mixed for 2 minutes at 1000 rpm and then allowed to incubate an additional 10 minutes before reading out luminescence on a Tecan Spark plate reader. Raw data was converted to percent inhibition based on DMSO only and control compound wells, and curves were analyzed by 4-parameter fit within Dotmatics software.

α4β1 integrin = α4β1 integrin (Homo sapiens (Human), UniProt P05556+P13612); assay: Integrin Adhesion Assay: Protocol 5 (VCAM-coated plate, RPMI-8866 cells with stable LOF mutation of the ITGB7 gene); conditions: Protocol 5; RPMI-8866 cells with LOF mutation of ITGB7, VCAM; read-out: Mean IC50 α4β1 KO
Sequence of α4β1 integrin (P13612 34-1032): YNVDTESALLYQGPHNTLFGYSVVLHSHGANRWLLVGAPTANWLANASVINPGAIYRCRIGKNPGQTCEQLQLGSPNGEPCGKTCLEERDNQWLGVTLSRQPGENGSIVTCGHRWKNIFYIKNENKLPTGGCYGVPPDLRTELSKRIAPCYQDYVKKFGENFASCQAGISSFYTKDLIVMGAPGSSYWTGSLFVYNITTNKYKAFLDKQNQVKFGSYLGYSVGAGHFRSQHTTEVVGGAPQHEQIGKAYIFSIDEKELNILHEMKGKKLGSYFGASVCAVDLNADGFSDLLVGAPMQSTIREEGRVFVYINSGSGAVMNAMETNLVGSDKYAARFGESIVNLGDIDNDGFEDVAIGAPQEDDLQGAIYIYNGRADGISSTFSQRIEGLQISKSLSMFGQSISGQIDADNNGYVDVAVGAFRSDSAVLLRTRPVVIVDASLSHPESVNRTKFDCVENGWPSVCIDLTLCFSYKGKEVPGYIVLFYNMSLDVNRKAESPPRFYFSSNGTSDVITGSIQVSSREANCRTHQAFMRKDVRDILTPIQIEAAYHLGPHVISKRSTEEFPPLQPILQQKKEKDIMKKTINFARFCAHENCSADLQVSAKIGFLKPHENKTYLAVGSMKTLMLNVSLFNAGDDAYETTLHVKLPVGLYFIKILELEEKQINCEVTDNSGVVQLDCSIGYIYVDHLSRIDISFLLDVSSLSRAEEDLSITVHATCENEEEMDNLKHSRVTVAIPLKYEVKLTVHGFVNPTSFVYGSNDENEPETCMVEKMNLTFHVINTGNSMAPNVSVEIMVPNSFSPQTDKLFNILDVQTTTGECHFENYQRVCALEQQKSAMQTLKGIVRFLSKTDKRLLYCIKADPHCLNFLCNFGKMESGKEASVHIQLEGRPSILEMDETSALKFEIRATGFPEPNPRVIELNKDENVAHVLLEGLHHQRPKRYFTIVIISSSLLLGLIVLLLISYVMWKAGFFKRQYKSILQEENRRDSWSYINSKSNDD
Sequence of α4β1 integrin (P05556 21-798): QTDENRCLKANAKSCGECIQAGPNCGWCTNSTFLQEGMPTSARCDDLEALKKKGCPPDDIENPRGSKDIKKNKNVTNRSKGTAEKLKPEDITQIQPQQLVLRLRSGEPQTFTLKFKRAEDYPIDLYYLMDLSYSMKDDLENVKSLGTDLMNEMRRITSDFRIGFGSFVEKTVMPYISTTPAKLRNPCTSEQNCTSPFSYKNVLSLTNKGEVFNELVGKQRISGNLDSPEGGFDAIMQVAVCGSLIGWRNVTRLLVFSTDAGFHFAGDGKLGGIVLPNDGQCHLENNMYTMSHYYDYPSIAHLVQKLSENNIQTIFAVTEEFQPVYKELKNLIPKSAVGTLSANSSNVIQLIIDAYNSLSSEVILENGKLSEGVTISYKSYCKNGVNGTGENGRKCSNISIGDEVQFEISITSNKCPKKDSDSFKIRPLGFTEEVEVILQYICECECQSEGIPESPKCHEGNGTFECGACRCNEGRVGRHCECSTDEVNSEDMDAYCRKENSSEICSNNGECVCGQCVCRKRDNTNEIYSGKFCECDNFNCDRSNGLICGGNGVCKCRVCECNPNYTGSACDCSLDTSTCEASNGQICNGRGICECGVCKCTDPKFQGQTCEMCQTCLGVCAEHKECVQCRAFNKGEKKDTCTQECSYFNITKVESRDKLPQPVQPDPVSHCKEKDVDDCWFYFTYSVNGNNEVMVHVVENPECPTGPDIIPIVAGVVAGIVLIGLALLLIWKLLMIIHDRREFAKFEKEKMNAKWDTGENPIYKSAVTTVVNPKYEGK
Summary of the method: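 RPMI-8866 B cells with CRISPR/Cas9 ITGB7 knockout (clonal, verified by flow cytometry) adhered to VCAM-coated wells for 1 h at 37° C in HEPES/NaCl buffer with 1 mM MnCl2, 0.1 mM CaCl2, 1% BSA, 1% DMSO. Bound cells quantified by CellTiter-Glo luminescence after washing; % inhibition versus DMSO and control, 4-parameter fit.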

α4β7 integrin [2] = biological target: T1, α4β7 integrin; assay: Integrin Adhesion Assay: Protocol 4 (MAdCAM-coated plate, RPMI-8866 cells with stable LOF mutation of the ITGB1 gene); conditions: Protocol 4; RPMI-8866 cells with LOF mutation of ITGB1, MAdCAM; read-out: Mean IC50 α4β7 KO
Summary of the method: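 RPMI-8866 cells with CRISPR/Cas9 knockout of ITGB1 (2×10^6/mL) were added to MAdCAM-coated wells with compound (1% DMSO) in HEPES/NaCl buffer with 1 mM MnCl2, 0.1 mM CaCl2 and 1% BSA, then incubated 1 h at 37 °C. After four washes, adherent cells were quantified by CellTiter-Glo luminescence. Percent inhibition versus DMSO and control compound was fitted to 4-parameter curves.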

[3] = integrin adhesion assay, determined by at least one of the assays described (protocol not specified)

T1 sequence (P13612 34-1032): as the sequence (P13612 34-1032) above
T1 sequence (P26010 20-798): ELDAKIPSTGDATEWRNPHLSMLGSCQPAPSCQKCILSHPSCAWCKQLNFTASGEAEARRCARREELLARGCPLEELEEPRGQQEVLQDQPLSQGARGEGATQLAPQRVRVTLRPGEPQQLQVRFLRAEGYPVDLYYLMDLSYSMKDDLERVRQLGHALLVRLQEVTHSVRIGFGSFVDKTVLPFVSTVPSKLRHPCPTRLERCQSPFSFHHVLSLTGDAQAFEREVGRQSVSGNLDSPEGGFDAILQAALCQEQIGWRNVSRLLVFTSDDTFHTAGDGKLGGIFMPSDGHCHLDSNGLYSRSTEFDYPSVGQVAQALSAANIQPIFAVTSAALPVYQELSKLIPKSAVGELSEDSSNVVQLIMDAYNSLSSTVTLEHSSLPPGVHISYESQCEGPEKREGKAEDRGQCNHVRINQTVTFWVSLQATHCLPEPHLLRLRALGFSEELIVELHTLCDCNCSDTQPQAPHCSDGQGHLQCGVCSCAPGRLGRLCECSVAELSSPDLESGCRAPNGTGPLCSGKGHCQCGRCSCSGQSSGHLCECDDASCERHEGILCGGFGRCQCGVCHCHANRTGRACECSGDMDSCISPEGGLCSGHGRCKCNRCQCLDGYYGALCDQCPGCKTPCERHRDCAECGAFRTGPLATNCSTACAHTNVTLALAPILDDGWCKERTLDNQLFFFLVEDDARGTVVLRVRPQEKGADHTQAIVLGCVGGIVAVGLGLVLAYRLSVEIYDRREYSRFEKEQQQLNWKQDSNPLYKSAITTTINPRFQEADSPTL

Structure (SMILES) | IC50 (α4β7 integrin [1]) [µM] | IC50 (α4β1 integrin) [µM] | IC50 (α4β7 integrin [2]) [µM] | other results
CC1(C)NC(=O)c2c(-c3cccc4c(C[C@H](NC(=O)c5c(F)cccc5F)C(=O)O)cccc34)cccc21 [Compound 5] |  |  |  | IC50 (α4β7 integrin [1]; [3]): 0.01 to 0.1 µM
Cn1ccc(=O)n(-c2cccc3c(C[C@H](NC(=O)C4(C(F)(F)F)CCCCC4)C(=O)O)cccc23)c1=O [Compound 13] |  |  |  | IC50 (α4β7 integrin [1]; [3]): 0.01 to 0.1 µM
Cn1ccc(=O)n(-c2cccc3c(C[C@H](NC(=O)c4c(F)ccc(C#N)c4F)C(=O)O)cccc23)c1=O [Compound 32] |  |  |  | IC50 (α4β7 integrin [1]; [3]): 0.01 to 0.1 µM
Cn1ccc(=O)n(-c2cccc3c(C[C@H](NC(=O)[C@@H]4CCCN4S(=O)(=O)c4ccccc4)C(=O)O)cccc23)c1=O [Compound 109] |  |  |  | IC50 (α4β7 integrin [1]; [3]): 0.1 to 1 µM
Cn1ccc(=O)n(-c2cccc3c(C[C@H](NC(=O)C4(C)CCCN(CC(F)(F)F)C4)C(=O)O)cccc23)c1=O (stereo partly drawn) [Compound 121] |  |  |  | IC50 (α4β7 integrin [1]; [3]): > 1 µM
Cc1nn(CC(F)(F)F)c(C)c1C(=O)N[C@@H](Cc1cccc2c(-n3c(=O)ccn(C)c3=O)cccc12)C(=O)O [Compound 122] |  |  |  | IC50 (α4β7 integrin [1]; [3]): 0.01 to 0.1 µM
Cc1nn(C2CCOCC2)c(C)c1C(=O)N[C@@H](Cc1cccc2c(-n3c(=O)ccn(C)c3=O)cccc12)C(=O)O [Compound 123] |  |  |  | IC50 (α4β7 integrin [1]; [3]): 0.01 to 0.1 µM
Cc1nccc(O)c1C(=O)N[C@@H](Cc1cccc2c(-n3c(=O)ccn(C)c3=O)cccc12)C(=O)O [Compound 125] |  |  |  | IC50 (α4β7 integrin [1]; [3]): > 1 µM
Cn1ccc(=O)n(-c2cccc3c(C[C@H](NC(=O)c4c(F)ccc(NS(=O)(=O)C5CC5)c4F)C(=O)O)cccc23)c1=O [Compound 134] |  |  |  | IC50 (α4β7 integrin [1]; [3]): < 0.01 µM
C=CCc1cn(C)c(=O)n(-c2cccc3c(C[C@H](NC(=O)c4c(F)cccc4F)C(=O)O)cccc23)c1=O [Compound 136] |  |  |  | IC50 (α4β7 integrin [1]; [3]): 0.01 to 0.1 µM
Cn1ccc(C(F)(F)F)c(-c2cncc3c(C[C@H](NC(=O)c4c(F)cccc4F)C(=O)O)cccc23)c1=O [Compound 211] |  |  |  | IC50 (α4β7 integrin [1]; [3]): 0.01 to 0.1 µM
Cn1ccc(C(F)(F)F)c(-c2ccnc3c(C[C@H](NC(=O)c4c(F)cccc4F)C(=O)O)cccc23)c1=O [Compound 212] |  |  |  | IC50 (α4β7 integrin [1]; [3]): 0.1 to 1 µM
Cc1cccc(C)c1-c1cc(C(=O)N[C@@H](Cc2cccc3c(-c4c(C(F)(F)F)c5ccccc5n(C)c4=O)cccc23)C(=O)O)c(F)c(C(F)(F)F)c1 [Compound 303] | > 1 |  |  | 
Cc1cccc(C)c1-c1cc(F)c(C(=O)N[C@@H](Cc2cccc3c(-c4c(C(F)(F)F)c5ccccc5n(C)c4=O)cccc23)C(=O)O)c(F)c1 [Compound 304] | > 1 |  |  | 
Cc1cccc(C)c1-c1cc(F)c(F)c(C(=O)N[C@@H](Cc2cccc3c(-c4c(C(F)(F)F)c5ccccc5n(C)c4=O)cccc23)C(=O)O)c1 [Compound 306] | > 1 |  |  | 
Cn1c(=O)c(-c2cccc3c(C[C@H](NC(=O)c4c(F)cc(N5CCC[C@@H]5C(F)(F)F)cc4F)C(=O)O)cccc23)c(C(F)(F)F)c2ccccc21 [Compound 319] | 0.1 to 1 |  |  | 
Cn1c(=O)c(-c2cccc3c(C[C@H](NC(=O)c4c(F)cc5[nH]c(CC(F)(F)F)nc5c4F)C(=O)O)cccc23)c(C(F)(F)F)c2ccccc21 [Compound 320] | 0.1 to 1 |  |  | 
Cn1c(=O)c(-c2cccc3c(C[C@H](Nc4nccc(N5CCOC[C@@H]5C(F)(F)F)c4F)C(=O)O)cccc23)c(C(F)(F)F)c2ccccc21 [Compound 326] | > 1 |  |  | 
Cc1c(C(=O)N[C@@H](Cc2cccc3c(-c4c(C(F)(F)F)c5ccccc5n(C)c4=O)cccc23)C(=O)O)nn2ccccc12 [Compound 329] | > 1 |  |  | 
Cn1c(=O)c(-c2cccc3c(C[C@H](NC(=O)c4c(F)cc(N5CCO[C@H](c6ccccc6)C5)cc4F)C(=O)O)cccc23)c(C(F)(F)F)c2ccccc21 [Compound 333] | > 1 |  |  | 
Cn1c(=O)c(-c2cccc3c(C[C@H](NC(=O)c4c(F)cc(N5CCOC[C@H]5c5ccccc5)cc4F)C(=O)O)cccc23)c(C(F)(F)F)c2ccccc21 [Compound 334] | > 1 |  |  | 
CC(C)[C@H]1COCCN1c1cc(F)c(C(=O)N[C@@H](Cc2cccc3c(-c4c(C(F)(F)F)c5ccccc5n(C)c4=O)cccc23)C(=O)O)c(F)c1 [Compound 337] | 0.1 to 1 |  |  | 

Structure (SMILES) | IC50 (α4β7 integrin [1]) [µM] | IC50 (α4β1 integrin) [µM] | IC50 (α4β7 integrin [2]) [µM] | other results
Cn1c(=O)c(-c2cccc3c(C[C@H](NC(=O)c4c(F)cc(N5CCO[C@@H](c6ccccc6)C5)cc4F)C(=O)O)cccc23)c(C(F)(F)F)c2ccccc21 [Compound 338] | > 1 |  |  | 
Cn1c(=O)c(-c2cccc3c(C[C@H](NC(=O)c4c(F)cc(N5CCOC6(CCC6)C5)cc4F)C(=O)O)cccc23)c(C(F)(F)F)c2ccccc21 [Compound 340] | 0.1 to 1 |  |  | 
Cn1c(=O)c(-c2cccc3c(C[C@H](NC(=O)c4c(F)cc(N5CCOC(c6cccc(C(F)(F)F)c6)C5)cc4F)C(=O)O)cccc23)c(C(F)(F)F)c2ccccc21 (stereo partly drawn) [Compound 342] | > 1 |  |  | 
Cn1c(=O)c(-c2cccc3c(C[C@H](NC(=O)c4c(F)cc(N5CCOc6ccc(C(F)(F)F)cc65)cc4F)C(=O)O)cccc23)c(C(F)(F)F)c2ccccc21 [Compound 343] | > 1 |  |  | 
Cn1c(=O)c(-c2cccc3c(C[C@H](NC(=O)c4c(F)cc(N5CCOCC5c5ccc(C(F)(F)F)cc5)cc4F)C(=O)O)cccc23)c(C(F)(F)F)c2ccccc21 (stereo partly drawn) [Compound 344] | > 1 |  |  | 
Cn1c(=O)c(-c2cccc3c(C[C@H](NC(=O)c4c(F)cc(-c5ccc(F)c(Cl)c5)cc4F)C(=O)O)cccc23)c(C(F)(F)F)c2ccccc21 [Compound 345] | > 1 |  |  | 
COc1cccc(CCN2CCC(F)(F)CC2)c1-c1cccc2c(C[C@H](NC(=O)c3c(C)cccc3F)C(=O)O)cccc12 [Compound 1034] |  | > 1 | 0.01 to 0.1 | 
COc1cccc(CCN2CCC(F)CC2)c1-c1cccc2c(C[C@H](NC(=O)c3c(C)cccc3F)C(=O)O)cccc12 [Compound 1035] |  | > 1 | 0.01 to 0.1 | 
COc1cccc(CCN2CCC[C@@H](F)C2)c1-c1cccc2c(C[C@H](NC(=O)c3c(C)cccc3F)C(=O)O)cccc12 [Compound 1036] |  | > 1 | < 0.01 | 
COc1cccc(CCN2CCC[C@H](F)C2)c1-c1cccc2c(C[C@H](NC(=O)c3c(C)cccc3F)C(=O)O)cccc12 [Compound 1037] |  | > 1 | < 0.01 | 
COc1ccc(CN(C)C)c(Cl)c1-c1cccc2c(C[C@H](NC(=O)c3c(C)cccc3F)C(=O)O)cccc12 [Compound 1038] |  | 0.1 to 1 | < 0.01 | 
COc1cnc(CN2CCC3(CCCCC3)CC2)c(OC)c1-c1cccc2c(C[C@H](NC(=O)c3c(C)cccc3F)C(=O)O)cccc12 [Compound 1039] |  | > 1 | < 0.01 | 
COCc1ccc2c(c1)c(C(F)(F)F)c(-c1cccc3c(CC(NC(=O)c4c(F)cccc4F)C(=O)O)cccc13)c(=O)n2C (stereo not drawn) [Compound 1041] |  | > 1 | 0.1 to 1 | 
CN(C)CCc1cccc2c(-c3cccc4c(C[C@H](NC(=O)C5(C(F)(F)F)CCN(CC(F)(F)F)CC5)C(=O)O)cccc34)nccc12 [Compound 1042] |  | 0.1 to 1 | < 0.01 | 
Cn1c(=O)c(-c2cccc3c(C[C@H](NC(=O)c4c(F)cccc4F)C(=O)O)cccc23)c(C(F)(F)F)c2cc(CO)ccc21 [Compound 1043] |  | > 1 | 0.01 to 0.1 | 
CCc1c(CN(C)C)ccc(OC)c1-c1cccc2c(C[C@H](NC(=O)c3c(C)cccc3F)C(=O)O)cccc12 [Compound 1044] |  | 0.1 to 1 | < 0.01 | 
COc1ccc(C2(N(C)C)CC2)c(OC)c1-c1cccc2c(C[C@H](NC(=O)c3c(C)cccc3F)C(=O)O)cccc12 [Compound 1045] |  | 0.1 to 1 | < 0.01 | 
Cn1c(=O)c(-c2cccc3c(C[C@H](NC(=O)c4c(F)cccc4F)C(=O)O)cccc23)c(C(F)(F)F)c2cc(C3CCCO3)ccc21 (stereo partly drawn) [Compound 1046] |  | > 1 | 0.1 to 1 | 
Cn1c(=O)c(-c2cccc3c(C[C@H](NC(=O)C4(C(F)(F)F)CCCN(CC5COC5)C4)C(=O)O)cccc23)c(C(F)(F)F)c2ccccc21 (stereo partly drawn) [Compound 1049] |  | > 1 | 0.1 to 1 | 
Cn1c(=O)c(-c2cccc3c(C[C@H](NC(=O)C4(C)CCCN(C5COC5)CC4)C(=O)O)cccc23)c(C(F)(F)F)c2ccccc21 (stereo partly drawn) [Compound 1050] |  | > 1 | 0.01 to 0.1 | 
Cn1c(=O)c(-c2cccc3c(C[C@H](NC(=O)c4c(F)cccc4F)C(=O)O)cccc23)c(C(F)(F)F)c2cc(CN)ccc21 [Compound 1051] |  | 0.1 to 1 | < 0.01 | 
Cc1cccc(F)c1C(=O)N[C@@H](Cc1cccc2c(-c3c(C(F)(F)F)c4cc(CCCN(C)C)ccc4n(C)c3=O)cccc12)C(=O)O [Compound 1053] |  | 0.1 to 1 | < 0.01 | 
